In PMC5712521, “Dendrogenin A drives LXR to trigger lethal autophagy in cancers” (Nature Communications, 2017):
Like-named read-outs stand apart in the source and are kept apart here.

Legend:
HL60 tumors = assay: Subcutaneous HL60 tumor xenograft; format: in vivo, mice
Method: (§1) Exponentially growing cells were harvested, washed twice in PBS then resuspended in PBS. SKMEL-28, shSKMEL-28 clones (5 × 10^6 cells) and B16F10 (3 × 10^5) cells were injected subcutaneously (s.c.) into the flank of nude mice. HL60, KG1 and shKG1-clones (5 × 10^6) were inoculated s.c. into the flanks of NOD/SCID mice. When tumors were palpable, animals (n = 10–20 mice per group, as indicated) were randomized to receive either DDA (20 mg/kg) intraperitoneally (i.p.) or 40 mg/kg by oral gavage (p.o), once a day, or vehicle solvent for the indicated time. Animals were examined daily and body weights were measured twice a week. In all experiments, tumor volume was determined by direct measurement with a caliper and was calculated using the formula (width^2 × length)/2. At the end of experiments, mice were sacrificed and tumors were excised and divided for intra-tumoral DDA quantification, immunoblotting, or immunohistochemistry analyses. […]
(§2) (n=16- 20 mice/group) engrafted with KG1 cells or HL60 cells were treated with DDA (20 mg/kg/day, i.p.) or solvent vehicle (control). Tumor growth was monitored over time and was analyzed for significance using repeated measures ANOVA (***P<0.001). The mean tumor volumes ± SEM are shown. e Average tumor weight at the end of the experiments in d. *P<0.5, **P<0.01, ANOVA. f Mean tumor volumes measured at the end of the experiments for HL60 and KG1 graf ted into NOD/SCID or NMRI-Fo x1 -nude mice treated with DDA (40 mg/kg/day, p.o. or 20 mg/kg/day, i.p.) or solvent vehicle (control) (n=10- 20 mice per group). Values represent the means ± S.E.M. (**P<0.01, ***P<0.001, ANOVA). g Histochemical analysis of the expression of LC3 and P62 in HL60 tumor sections isolated from NOD/SCID mice treated or not with DDA (20 mg/kg/day, i.p.). h Quantification of LC3 punctate cells in shCTRL and shLXRβ KG1 tumors. i Quantification of DDA levels in tumors 4 h after the final administration of DDA. j Box plot of TCGA RNA-seq data from patients with melanoma showing that LXRβ is the predominant LXR isoform expressed. […]

AML patient samples = assay: Annexin-V/7AAD viability assay on AML patient samples (bulk and CD34+CD38−CD123+ progenitor/LSC); format: cell-based, human; conditions: for IC50: Homo sapiens, 48 h, panel of 61 AML patient samples
Method: The cytotoxic response to DDA of AML cells was determined by flow cytometry. Cells were exposed to DDA for 24 or 48 h then washed with cold phosphate-buffered saline (PBS) and resuspended in 200 µl of Annexin-V binding buffer. For the analysis of AML patient samples, cells were incubated with antibodies against the surface markers CD45-V450 (clone H130), CD34-PeCy7 (clone 8G12), CD38-APC (clone HB7) and CD123-PE (clone 9F5) (BD Pharmagen) before being resuspended in Annexin-V binding buffer. Annexin-V-fluorescein isothiocyanate (BD Pharmagen, clone 2331) and 7-aminoactinomycin D (7AAD) were then added, and the samples were incubated in the dark at room temperature for 15 min. The percentage of viable cells, Annexin-V-7AAD-negative cells, was scored using a flow cytometer.
AML patient and normal bone marrow samples were obtained from patients in the Hematology Department of Toulouse (France), after obtaining consent in accordance with the Declaration of Helsinki[67], and according to institutional guidelines. Samples were stored at the INSERM-1037 HIMIP collection (no. DC-2008-307-CPTP1 HIMIP). For some experiments, fresh leukemic blasts recovered at diagnosis were immediately treated with DDA. In other cases, frozen cells were thawed in IMDM medium with 20% FBS. Patient characteristics are shown in supplementary data 1. Normal bone marrow cells were subjected to Ficoll-Paque density gradient separation to isolate mononuclear cells, followed by CD34+ cell separation using high-gradient magnetic-activated cell sorting, according to the manufacturer’s manual. The in vivo assays were performed with cryopreserved cells.

KG1 tumors = assay: Subcutaneous KG1 tumor xenograft; format: in vivo, mice
Method: as §1, §2

B16F10 tumors = assay: B16F10 melanoma tumors in mice; format: in vivo; conditions: mouse B16F10; i.p. 20 mg/kg/day
Method: Exponentially growing cells were harvested, washed twice in PBS then resuspended in PBS. SKMEL-28, shSKMEL-28 clones (5 × 10^6 cells) and B16F10 (3 × 10^5) cells were injected subcutaneously (s.c.) into the flank of nude mice. HL60, KG1 and shKG1-clones (5 × 10^6) were inoculated s.c. into the flanks of NOD/SCID mice. When tumors were palpable, animals (n = 10–20 mice per group, as indicated) were randomized to receive either DDA (20 mg/kg) intraperitoneally (i.p.) or 40 mg/kg by oral gavage (p.o), once a day, or vehicle solvent for the indicated time. Animals were examined daily and body weights were measured twice a week. In all experiments, tumor volume was determined by direct measurement with a caliper and was calculated using the formula (width^2 × length)/2. At the end of experiments, mice were sacrificed and tumors were excised and divided for intra-tumoral DDA quantification, immunoblotting, or immunohistochemistry analyses.

primary AML cells = assay: Patient-derived primary AML cells engrafted into NSG mice; format: in vivo; conditions: three patients; 20 mg/kg/d i.p., 19 days
Method: The engraftment of human primary AML cells was performed on NSG mice. Briefly, human primary AML cells, HL60 cells or normal CD34+ cells were resuspended in PBS, and 0.8 × 10^6 to 2 × 10^6 viable trypan blue-negative cells were injected intravenously into NSG mice that had been previously irradiated for 24 h with 2.25 Gy. Two and a half weeks after the injection of human cells, mice were treated with DDA (20 mg/kg/day by IP injection) or vehicle as control for 2, 3 weeks, after which the engraftment of human AML and normal hematopoietic cells was measured in the bone marrow, spleen and brain by quantifying the percentage of hCD45+CD33+ cells by flow cytometry. The viability of AML cells was established by quantifying the percentage of hCD45+CD33+Annexin-V- cells.

## CC(C)CCC[C@@H](C)[C@H]1CC[C@H]2[C@@H]3C[C@@H](NCCc4cnc[nH]4)[C@@]4(O)C[C@@H](O)CC[C@]4(C)[C@H]3CC[C@]12C [DDA, Dendrogenin A]
HL60 tumors; NMRI-Fox1-nude mice, DDA i.p. 20mg/kg/d (control 726±81)
  Tumor volume at the end of the experiment: 203±72 mm3
HL60 tumors; NOD/SCID mice, DDA i.p. 20mg/kg/d (control 2348±204)
  Tumor volume at the end of the experiment: 880±101 mm3
HL60 tumors; NOD/SCID mice, DDA p.o. 40mg/kg/d (control 2348±204)
  Tumor volume at the end of the experiment: 812±66 mm3
AML patient samples; AML bulk and progenitor/LSC (CD34+CD38−CD123+) subpopulation
  efficiency relative to cytarabine: 100 fold
AML patient samples; read-out: median IC50, cell viability
  IC50: 3.3 µM
AML patient samples; read-out: range of IC50, cell viability
  IC50: 1.2 to 11.3 µM
KG1 tumors; NOD/SCID mice, DDA i.p. 20mg/kg/d (control 1249±137)
  Tumor volume at the end of the experiment: 618±55 mm3
KG1 tumors; NOD/SCID mice, DDA p.o. 40mg/kg/d (control 1249±137)
  Tumor volume at the end of the experiment: 400±68 mm3
KG1 tumors; mice, DDA i.p. 20mg/kg/d (control 1134±389)
  Tumor volume at the end of the experiment: 443±62 mm3
B16F10 tumors
  tumor growth: significantly reduced the growth
Primary AML cells
  change in AML cell viability in bone marrow and spleen compared to controls: −19.6 ± 7.6%
  change in number of AML cells in bone marrow and spleen compared to controls: −57 ± 15%
